Measured values as given in patent US12527835B2, “Brevican-binding peptides for brain tumor imaging” (The Brigham and Women's Hospital, Inc., priority 2018, dated 2026).
Where a SMILES comes first, the peptide text is derived from it. [ ]: non-standard residue; d: D form.

Legend:
[1] = molecular target: T1, recombinant BΔg protein (deglycosylated brevican) (Homo sapiens, UniProt Q96GW7); test: Octet steady state binding affinity to recombinant BΔg; settings: steady state analysis, Octet RED, peptide up to 10 μM; read-out: KD (dissociation constant) to BΔg protein
T1 construct: purchased R&D Systems 4009-BC-050
T1 sequence (Q96GW7 23-911): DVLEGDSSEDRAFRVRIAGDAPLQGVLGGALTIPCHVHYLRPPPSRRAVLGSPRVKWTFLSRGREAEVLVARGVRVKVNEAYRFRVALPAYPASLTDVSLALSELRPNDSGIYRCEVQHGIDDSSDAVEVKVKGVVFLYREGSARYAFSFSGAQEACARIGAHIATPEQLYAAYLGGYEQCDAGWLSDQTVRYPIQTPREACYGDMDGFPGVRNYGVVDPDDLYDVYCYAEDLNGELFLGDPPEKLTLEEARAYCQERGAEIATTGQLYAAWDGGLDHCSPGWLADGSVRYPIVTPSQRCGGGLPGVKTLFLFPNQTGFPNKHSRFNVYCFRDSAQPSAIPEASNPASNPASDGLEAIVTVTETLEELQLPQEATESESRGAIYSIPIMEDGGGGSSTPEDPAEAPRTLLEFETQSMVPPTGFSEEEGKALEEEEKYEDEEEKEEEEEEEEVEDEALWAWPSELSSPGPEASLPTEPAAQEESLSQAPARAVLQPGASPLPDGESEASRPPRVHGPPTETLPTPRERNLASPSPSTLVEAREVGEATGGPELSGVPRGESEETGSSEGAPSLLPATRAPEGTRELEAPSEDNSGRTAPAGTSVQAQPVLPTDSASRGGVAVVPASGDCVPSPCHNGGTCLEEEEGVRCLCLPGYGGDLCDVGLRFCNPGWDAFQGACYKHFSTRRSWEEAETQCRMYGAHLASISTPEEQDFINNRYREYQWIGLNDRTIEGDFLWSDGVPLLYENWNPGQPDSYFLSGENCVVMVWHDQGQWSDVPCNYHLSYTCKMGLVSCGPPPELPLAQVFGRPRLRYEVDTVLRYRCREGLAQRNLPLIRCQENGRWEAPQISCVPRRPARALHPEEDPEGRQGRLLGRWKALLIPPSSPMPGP
Procedure: A ForteBio OctetRed384 instrument was used to study the binding kinetics of each peptide to recombinant human brevican (re-suspended in PBS and 0.1 mM EDTA, pH 6.8). The brevican protein was deglycosylated prior to experimental use in water+0.05% tween, PI, sialidase, 0-glycosidase, N-glycosidase in sodium acetate [200 mM], NaCl [250 mM], Tris-HCl [200 mM], pH 7.5.) in the presence of protease inhibitor overnight at 4° C. (this entire composition will be referred to as ‘de-glycosylation buffer’). […] The final volume for all the solutions was 80 μl/well. Assays were performed at 30° C. in solid black 384-well plates (Geiger Bio-One). Prior to beginning, Ni-NTA biosensors were soaked for 10 min in working buffer. Before loading the protein onto each biosensor, a baseline was established in working buffer for 60 s. Deglycosylated brevican (50 μg/ml BΔg; His-tagged) was loaded on the surface of each biosensors for 180 s. […] Reference biosensors were also included in the plate as internal controls, where biosensors were exposed to the ‘de-glycosylation buffer’ lacking brevican protein during the loading step. A 60 s biosensor washing step was applied. Then, biosensors were exposed to the analyte (peptide) in working buffer (ranging between 0-10 μM BTP) for 300 s during the ‘association’ step. Finally, the biosensors were exposed to working buffer (without peptide) during the ‘dissociation’ step for 600 s. Binding affinity of each peptide was assessed through steady state analysis, where the response unit was plotted over peptide concentration. All data was plotted and curves were fitted using the non-linear ‘one-site specific binding’ fit, and the dissociation constant (KD) value was calculated using the GraphPad Prism software.
Binding kinetics analyses were performed using the Octet RED platform (Forte Bio) to measure the binding affinity of BTP-7, 8 and 9 to purified recombinant BΔg protein.

[2] = molecular target: T2, BΔg-derived peptide (a.a. 535-548 of BΔg) (Homo sapiens, UniProt Q96GW7); test: Circular dichroism of peptide mixed with BΔg-derived peptide; type: binding; settings: CD spectrometry, 50 μM each peptide
T2 construct: purchased GenScript USA Inc; host or cells: chemical synthesis
Procedure: (§1) The BΔg peptide (or control BΔg(Scramble) peptide), BTP-7-FITC peptide, or a mixture of both (dissolved in Milli-Q H2O to a final concentration of 50 μM for each peptide) was loaded into a quartz cuvette (1 mm pathlength; Hellma Analytics Catalog #110-1-40). The cuvette was inserted into the Jasco J-815 circular dichroism spectropolarimeter, and the spectral scan measurement was conducted using the Spectrum Manager 2 software. The cuvette was rinsed with Milli-Q H2O in between each run. A blank (water) was run to establish the baseline for all samples. Scans were measured from 190 nm to 260 nm in a continuous mode (50-100 nm/min) at 20° C. To measure the BTP-7 structural change in the presence of either the BΔg (or control scramble) peptide, spectrum of the BΔg (or scramble) peptide alone was subtracted from the spectrum of the mixture, and then overlaid with the spectrum of BTP-7 alone for comparison. To investigate the structural changes in BTP-7 in a dose-dependent manner, 50 μM of BTP-7 peptide was loaded together with varying concentrations of either the BΔg (or control scramble) peptide. Similarly, the spectrum of each BΔg (or control scramble) peptide at the concentration was subtracted from the spectrum of the corresponding mixture, and then overlaid with the spectrum of BTP-7 alone for comparison.

[3] = system: BΔg-derived peptide (a.a. 535-548 of BΔg); test: as above; type: binding, human; settings: CD spectrometry, control peptide
Procedure: as §1

CC[C@@H](C)[C@@H](NC(=O)[C@H](N)[C@H](C)O)C(=O)N[C@H](CCCNC(=N)N)C(=O)N[C@H](CCCCN)C(=O)N[C@H](CC(C)C)C(=O)N[C@@H](C(=O)N[C@H](CCCNC(=N)N)C(=O)N[C@H](Cc1c[nH]cn1)C(N)=O)C(C)C [BTP-8] (H-[dT][dI][dR][dK][dL][dV][dR][dH]-NH2; N-terminus and C-terminus assumed)
Kd [1]: 1570 nM | peptide conformation in the presence of the BΔg-derived peptide [2]: unaffected | peptide conformation in the presence of the scramble(BΔg) peptide [3]: unaffected
